According to patent publication US20210393623A1 (Jacobio Pharmaceuticals Co., Ltd., priority 2018, published 2021):

What follows are molecules tested against T1, SHP2 (Homo sapiens, UniProt Q06124) (assay: Phosphatase Assay (Single Dose Inhibition)). Details: compound at 0.02 μM (20nM); DiFMUP substrate 12 μM; SHP2 0.5 nM activated with dPEG8 peptide; DMSO control set to 100%; triplicate.
T1 sequence (Q06124 1-593): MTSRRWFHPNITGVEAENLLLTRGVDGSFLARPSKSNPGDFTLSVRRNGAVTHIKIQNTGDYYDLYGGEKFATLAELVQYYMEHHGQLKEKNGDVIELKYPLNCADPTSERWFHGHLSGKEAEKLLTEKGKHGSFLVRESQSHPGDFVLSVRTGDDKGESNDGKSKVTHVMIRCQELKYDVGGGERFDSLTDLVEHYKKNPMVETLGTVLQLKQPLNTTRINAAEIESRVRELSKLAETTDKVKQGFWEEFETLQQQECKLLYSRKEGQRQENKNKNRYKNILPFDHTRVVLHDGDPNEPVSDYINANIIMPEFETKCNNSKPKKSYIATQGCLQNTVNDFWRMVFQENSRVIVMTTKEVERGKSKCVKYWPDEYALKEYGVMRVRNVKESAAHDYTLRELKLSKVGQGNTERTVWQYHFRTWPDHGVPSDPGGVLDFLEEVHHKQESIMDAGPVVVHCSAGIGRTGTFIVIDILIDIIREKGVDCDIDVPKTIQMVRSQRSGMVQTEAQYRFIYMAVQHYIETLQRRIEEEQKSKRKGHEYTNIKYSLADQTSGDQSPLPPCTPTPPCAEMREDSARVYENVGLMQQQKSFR
Assay type: biochemical
Protocol: Phosphatase Assay (Single Dose Inhibition) Assay Protocol: For single dose inhibition assays using 6,8-difluoro-4-methylumbelliferyl phosphate (DiFMUP) as a substrate, SHP2 samples (diluted to 0.5 nM in reaction buffer) were incubated with dPEG8 peptide for 30 min in reaction buffer[60 mM 3,3-dimethyl glutarate (pH7.2), 75 mM NaCl, 75 mM KCl, and 1 mM EDTA, 0.05% Tween 20, 2mM dithiothreitol (DTT) ] to active the PTP. DMSO [0.5% (v/v)] or compounds (20nM) were added to the mixture and incubated for 30 min at room temperature. Reactions were initiated by the addition of DiFMUP (12 μM; total reaction volume of 100 μL), and the fluorescence (excitation at 340 nm, emission at 450 nm) of the resulting solutions was measured on a 2104-0020 EnVision Xcite Multilabel Reader (PerkinElmer) after 30min. The experiment is carried out in triplicate. The value for the control sample (DMSO) was set to 100%, and the values for the compound-treated samples were expressed as activity relative to the control sample.

inhibition at 0.02 µM	SHP2 inhibition(%)	Molecule
79%		Cc1nc(N2CCC3(CC2)Cc2ncccc2[C@H]3N)c(C(N)=O)nc1-c1cccc(Cl)c1Cl [Example 27, (S)-3-(5-amino-5,7-dihydrospiro[cyclopenta[b]pyridine-6,4′-piperidin]-1′-yl)-6-(2,3-dichlorophenyl)-5-methylpyrazine-2-carboxamide]
68%		Nc1nc(N2CCC3(CC2)Cc2ncccc2[C@H]3N)c(Br)nc1Sc1cccc(Cl)c1Cl [Example 29, (S)-1′-(6-amino-3-bromo-5-((2,3-dichlorophenyl)thio)pyrazin-2-yl)-5,7-dihydrospiro[cyclopenta[b]pyridine-6,4′-piperidin]-5-amine]
68%		Cn1c(N2CCC3(CC2)Cc2ccc(F)cc2[C@H]3N)nc2[nH]nc(-c3cccc(Cl)c3Cl)c2c1=O [Example 37, (S)-6-(1-amino-6-fluoro-1,3-dihydrospiro[indene-2,4′-piperidin]-1′-yl)-3-(2,3-dichlorophenyl)-5-methyl-1,5-dihydro-4H-pyrazolo[3,4-d]pyrimidin-4-one]
84%		CCOC(=O)c1nc(Sc2ccnc(N)c2Cl)c(C)nc1N1CCC2(CC1)Cc1ccccc1[C@H]2N [Example 5, ethyl (S)-3-(1-amino-1,3-dihydrospiro[indene-2,4′-piperidin]-1′-yl)-6-((2-amino-3-chloropyridin-4-yl)thio)-5-methylpyrazine-2-carboxylate]
78%		Cc1cccc(-c2ncc(N3CCC4(CC3)Cc3ccc(Br)cc3[C@H]4N)nc2N)c1Cl [Example 45, (S)-1′-(6-amino-5-(2-chloro-3-methylphenyl)pyrazin-2-yl)-6-bromo-1,3-dihydrospiro[indene-2,4′-piperidin]-1-amine]
	82%	ethyl (S)-3-(1-amino-1,3-dihydrospiro[indene-2,4′-piperidin]-1′-yl)-6-(2,3-dichlorophenyl)-5--2-carboxylate [Example 1]
78%		N[C@@H]1c2cccnc2CC12CCN(c1nc3[nH]cc(-c4cccc(Cl)c4Cl)c3c(=O)[nH]1)CC2 [Example 39, (S)-2-(5-amino-5,7-dihydrospiro[cyclopenta[b]pyridine-6,4′-piperidin]-1′-yl)-5-(2,3-dichlorophenyl)-3,7-dihydro-4H-pyrrolo[2,3-d]pyrimidin-4-one]
85%		Cc1nc(N2CCC3(CC2)Cc2ccccc2[C@H]3N)c(CO)nc1-c1cccc(Cl)c1Cl [Example 23, (S)-(3-(1-amino-1,3-dihydrospiro[indene-2,4′-piperidin]-1′-yl)-6-(2,3-dichlorophenyl)-5-methylpyrazin-2-yl)methanol]
68%		CC(C)Nc1nccc(Sc2cnc(N3CCC4(CC3)Cc3ccc(S(C)(=O)=O)cc3[C@H]4N)cn2)c1Cl [Example 21, (S)-1′-(5-((3-chloro-2-(isopropylamino)pyridin-4-yl)thio)pyrazin-2-yl)-6-(methylsulfonyl)-1,3-dihydrospiro[indene-2,4′-piperidin]-1-amine]
68%		Cn1c(N2CCC3(CC2)Cc2ccccc2[C@H]3N)nc(N)c(Sc2ccnc(N)c2Cl)c1=O [Example 40]
80%		N#Cc1nc(Sc2cccc(Cl)c2Cl)c(N)nc1N1CCC2(CC1)Cc1ncccc1[C@H]2N [Example 30, (S)-5-amino-3-(5-amino-5,7-dihydrospiro[cyclopenta[b]pyridine-6,4′-piperidin]-1′-yl)-6-((2,3-dichlorophenyl)thio)pyrazine-2-carbonitrile]
80%		Cc1nc(N2CCC3(CC2)Cc2ncccc2[C@H]3N)cnc1-c1cccc(Cl)c1Cl [Example 2, (S)-1′-(5-(2,3-dichlorophenyl)-6-methylpyrazin-2-yl)-5,7-dihydrospiro[cyclopenta[b]pyridine-6,4′-piperidin]-5-amine]
89%		Cc1nc(N2CCC3(CC2)Cc2ccccc2[C@H]3N)cnc1Sc1ccnc(N)c1Cl [Example 6, (S)-1′-(5-((2-amino-3-chloropyridin-4-yl)thio)-6-methylpyrazin-2-yl)-1,3-dihydrospiro[indene-2,4′-piperidin]-1-amine]
53%		Cc1ccc(-c2n[nH]c3nc(N4CCC5(CC4)Cc4cc(F)c(F)c(F)c4[C@H]5N)n(C)c(=O)c23)s1 [Example 38, (S)-6-(1-amino-5,6,7-trifluoro-1,3-dihydrospiro[indene-2,4′-piperidin]-1′-yl)-5-methyl-3-(5-methylthiophen-2-yl)-1,5-dihydro-4H-pyrazolo[3,4-d]pyrimidin-4-one]
64%		N#Cc1cnc2c(c1)[C@@H](N)C1(CCN(c3ccc(Sc4ccnc(N)c4Cl)cn3)CC1)C2 [Example 15, (S)-5-amino-1′-(5-((2-amino-3-chloropyridin-4-yl)thio)pyridin-2-yl)-5,7-dihydrospiro[cyclopenta[b]pyridine-6,4′-piperidine]-3-carbonitrile]
78%		Cc1nc(N2CCC3(CC2)Cc2ncccc2[C@H]3N)c(Br)nc1-c1cccc(Cl)c1Cl [Example 25, (S)-1′-(3-bromo-5-(2,3-dichlorophenyl)-6-methylpyrazin-2-yl)-5,7-dihydrospiro[cyclopenta[b]pyridine-6,4′-piperidin]-5-amine]
67%		Cc1nc(N2CCC3(CC2)Cc2ncccc2[C@H]3N)c(C#N)nc1-c1cccc(Cl)c1Cl [Example 26, (S)-3-(5-amino-5,7-dihydrospiro[cyclopenta[b]pyridine-6,4′-piperidin]-1′-yl)-6-(2,3-dichlorophenyl)-5-methylpyrazine-2-carbonitrile]
70%		Nc1nccc(Sc2ccc(N3CCC4(CC3)Cc3ncccc3[C@H]4N)cn2)c1Cl [Example 33, (S)-1′-(6-((2-amino-3-chloropyridin-4-yl)thio)pyridin-3-yl)-5,7-dihydrospiro[cyclopenta[b]pyridine-6,4′-piperidin]-5-amine]
86%		N[C@@H]1c2ccccc2CC12CCN(c1cnc3c(N4CCCc5ncccc54)n[nH]c3n1)CC2 [Example 50, (S)-1′-(3-(3,4-dihydro-1,5-naphthyridin-1(2H)-yl)-1H-pyrazolo[3,4-b]pyrazin-6-yl)-1,3-dihydrospiro[indene-2,4′-piperidin]-1-amine]
89%		Cc1nc(N2CCC3(CC2)Cc2ccccc2[C@H]3N)c(C(N)=O)nc1-c1cccc(Cl)c1Cl [Example 4, (S)-3-(1-amino-1,3-dihydrospiro[indene-2,4′-piperidin]-1′-yl)-6-(2,3-dichlorophenyl)-5-methylpyrazine-2-carboxamide]
68%		Nc1nc(N2CCC3(CC2)Cc2ncccc2[C@H]3N)ncc1Sc1ccnc(N)c1Cl [Example 8, (S)-1′-(4-amino-5-((2-amino-3-chloropyridin-4-yl)thio)pyrimidin-2-yl)-5,7-dihydrospiro[cyclopenta[b]pyridine-6,4′-piperidin]-5-amine]
81%		Cc1nc(N2CCC3(CC2)Cc2ccccc2[C@H]3N)c(C(=O)O)nc1-c1cccc(Cl)c1Cl [Example 3, (S)-3-(1-amino-1,3-dihydrospiro[indene-2,4′-piperidin]-1′-yl)-6-(2,3-dichlorophenyl)-5-methylpyrazine-2-carboxylic acid]
75%		Nc1nc(N2CCC3(CC2)Cc2ncccc2[C@H]3N)ccc1Sc1ccnc(N)c1Cl [Example 32, (S)-1′-(6-amino-5-((2-amino-3-chloropyridin-4-yl)thio)pyridin-2-yl)-5,7-dihydrospiro[cyclopenta[b]pyridine-6,4′-piperidin]-5-amine]
88%		Cn1c(N2CCC3(CC2)Cc2ncccc2[C@H]3N)nc2[nH]nc(-c3cccc(Cl)c3Cl)c2c1=O [Example 36, (S)-6-(5-amino-5,7-dihydrospiro[cyclopenta[b]pyridine-6,4′-piperidin]-1′-yl)-3-(2,3-dichlorophenyl)-5-methyl-1,5-dihydro-4H-pyrazolo[3,4-d]pyrimidin-4-one]
56%		Cc1cccc(-c2ncc(N3CCC4(CC3)Cc3ccc(N)cc3[C@H]4N)nc2N)c1Cl [Example 47, (S)-1′-(6-amino-5-(2-chloro-3-methylphenyl)pyrazin-2-yl)-1,3-dihydrospiro[indene-2,4′-piperidine]-1,6-diamine]
82%		NC(=O)c1nc(Sc2cccc(Cl)c2Cl)c(N)nc1N1CCC2(CC1)Cc1ncccc1[C@H]2N [Example 31, (S)-5-amino-3-(5-amino-5,7-dihydrospiro[cyclopenta[b]pyridine-6,4′-piperidin]-1′-yl)-6-((2,3-dichlorophenyl)thio)pyrazine-2-carboxamide]
